Consider six molecules from patent US20240043557A1, “A PLATFORM TO OBTAIN MONOCLONAL ANTIBODIES DIRECTED AGAINST PROCESSED TUMOR-SPECIFIC ANTIGENS” (Mediterranea Theranostic srl, priority 2020, published 2024).

The target in data set [1] is T1, ADAM10 (Mus musculus, UniProt O35598).
T1 construct: endogenous in cells; host or cells: MTE 4-14 (transformed murine thymus cells) transfected with Trop-2
T1 sequence (O35598 215-749): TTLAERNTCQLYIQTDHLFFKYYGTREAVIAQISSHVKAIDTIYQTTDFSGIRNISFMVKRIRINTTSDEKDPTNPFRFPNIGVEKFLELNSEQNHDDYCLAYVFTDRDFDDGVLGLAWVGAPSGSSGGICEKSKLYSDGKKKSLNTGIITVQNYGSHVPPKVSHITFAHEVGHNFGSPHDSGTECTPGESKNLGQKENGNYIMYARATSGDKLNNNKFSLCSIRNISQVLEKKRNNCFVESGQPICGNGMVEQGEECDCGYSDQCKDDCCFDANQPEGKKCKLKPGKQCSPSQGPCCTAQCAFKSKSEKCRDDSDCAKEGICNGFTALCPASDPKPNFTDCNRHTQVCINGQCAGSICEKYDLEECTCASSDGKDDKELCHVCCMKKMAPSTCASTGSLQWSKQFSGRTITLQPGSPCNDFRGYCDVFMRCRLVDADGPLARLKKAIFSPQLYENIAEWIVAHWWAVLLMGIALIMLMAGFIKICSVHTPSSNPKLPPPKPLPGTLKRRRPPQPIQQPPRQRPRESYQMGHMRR
Briefly: Western blot of Trop-2 processing in MTE 4-14/Trop-2 transfectants upon ADAM10 inhibition. To be noted: for effect on Trop-2 processing: MTE 4-14/Trop-2 transfectants, WB; for minimum concentration found to be effective in inhibiting Trop-2 cleavage: concentration used, GM6001 24 hours, G1254023X two doses every 24 hours for 48 hours; for concentration found effective (up to): inhibition of Trop-2 cleavage. In kind it is cell-based, murine. The method, then:
ADAM 10 activity was inhibited in the MTE 4-14/Trop-2 transfectants by treatment with chemical inhibitors or mRNA silencing, and the effect on Trop-2 processing and on Trop-2-dependent cell growth was evaluated.
A. WB analysis following treatment with the broad-spectrum metalloprotease inhibitor GM6001 or with the specific ADAM10 inhibitor G1254023X or ADAM10 siRNA silencing, as indicated. […] T2-p: processed Trop-2; na: native form; pr: processed form.
Western blotting was performed as described (El Sewedy, Fomaro et al. 1998). Tumors from experimental animals were rapidly frozen upon surgical removal and stored at −80° C. Frozen samples were quickly thawed and homogenized with a Dounce homogenizer. Cleared homogenates of tumors and cultured cell lysates were analyzed by SDS-PAGE and transferred to nitrocellulose filters. Filters were hybridized with anti-human Trop-2 (affinity-purified polyclonal rabbit antiserum) or anti-ADAM10 antibodies.
Cells were treated with ADAM10 inhibitors for 24 hours at the minimum concentration found to be effective in inhibiting Trop-2 cleavage, then assayed as indicated. The GM6001 metalloprotease family inhibitor (Calbiochem) was dissolved in DMSO and used at 6.5-13 μM for 24 hours; up to 50 μM GM6001 were found effective. The G1254023X selective ADAM10 inhibitor, dissolved in DMSO, was kindly provided by Dr. A. Ludwig. Cells received two doses (10 μM) every 24 hours for 48 hours; up to 20 μM G1254023X were found effective. Control cells received vehicle alone.
(§1) Complementary strategies were utilized for siRNA design. Briefly, Tuschl′ criteria were applied, i.e. position in the mRNA, GC content, base composition and flanking sequences (Elbashir, Harborth et al. 2001). Invitrogen (maidesigner.invitrogen.com/maiexpress/) provides a proprietary algorithm that performs a statistical analysis of the target sequence, based on sequence composition, nucleotide content and thermodynamic properties, and compares candidates with validated siRNA sequences. The Whitehead Institute web site (jura.wi.mit.edu/bioc/siRNAext/) combines Tuschl′ criteria with predictions of binding energies for both sense and antisense siRNAs and with BLAST filtering of cross-hybridizing sequences. The Sonnhammer procedure (sonnhammer.cgb.ki.se/siSearch/) performs data mining (siSearch) on validated siRNA databanks, using motif rules and energy parameters. siRNA were synthesized that were identified by more than one method or considered optimal by any of the procedures above. Annealed oligos were subcloned into the pSUPER vector, kindly provided by Dr. R. Bernard (Brummelkamp, Bernards et al. 2002), under the control of the RNA polymerase III H1 gene promoter. siRNA expression constructs were transiently transfected MTE 4-14 transfectants, and cell growth was measured. siRNA-targeted transcript levels were quantified by real-time PCR. Negative control siRNAs directed towards irrelevant targets were used; these were chosen after extensive testing for lack of off-target influence on cell growth.
In general terms: Immunoblotting shows a protein as a band on a membrane.

In data set [2] the test system is metastatic triple-negative breast cancer (TNBC). To be noted: patients with metastatic TNBC; cited from earlier work.
Data set [3] concerns MTE 4-14 cells. Briefly: In vitro growth of MTE 4-14 transfectants upon siRNA-mediated inhibition. In kind it is cell-based, murine. The method, then:
C. In vitro growth curves of MTE 4-14 cells transfected with the empty vector, wtTrop-2 or R87A-T88A Trop-2 upon ADAM10 (upper graphs, black,), MMP9 (lower graphs, black,) or control (human CD133, gray), siRNA-mediated inhibition. Bars: SEM. The p value for the only significant difference (ANOVA analysis) is indicated. Stars indicate post-hoc Bonferroni's t test p values (*≤0.05, **≤0.001).
Cell transfectants were seeded at 1.5−3.0×10^3 cells/well in 96-well plates (five replica wells per data point). Cell numbers were quantified by staining with crystal violet. Cell numbers were normalized against a standard reference curve of two-fold serially diluted cell samples.
as §1, with “Negative control siRNAs directed towards irrelevant targets were used; these were chosen after extensive testing for lack of off-target influence on cell growth.” left out

The target of data set [4] is T2, Trop-2 (wild-type human Trop-2, NCBI accession number NP_002344.2).
T2 chain: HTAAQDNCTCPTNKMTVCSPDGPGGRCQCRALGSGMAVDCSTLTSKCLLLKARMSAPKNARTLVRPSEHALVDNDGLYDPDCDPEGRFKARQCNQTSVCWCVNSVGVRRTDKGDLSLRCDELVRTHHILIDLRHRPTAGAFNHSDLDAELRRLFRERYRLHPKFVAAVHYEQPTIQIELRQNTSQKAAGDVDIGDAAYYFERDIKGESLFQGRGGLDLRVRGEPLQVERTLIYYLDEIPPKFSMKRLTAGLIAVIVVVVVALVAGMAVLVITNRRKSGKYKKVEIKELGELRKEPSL

In the case of `CNC(=O)[C@@H](NC(=O)[C@H](CCCc1ccccc1)[C@H](C)N(O)C=O)C(C)(C)C` [G1254023X], in data set [1], the “effect on Trop-2 processing” value is “reduction in Trop-2 processing”, the “minimum concentration found to be effective in inhibiting Trop-2 cleavage” value turned out to be 10 µM and the “concentration found effective (up to)” value is “up to 20 μM”.
As to Sacituzumab govitecan-hziy, the efficacy in patients result in data set [2] was “effective”.
`CNC(=O)[C@H](Cc1c[nH]c2ccccc12)NC(=O)[C@@H](CC(=O)NO)CC(C)C` [GM6001]: in data set [1], the “effect on Trop-2 processing” value is recorded as “reduction in Trop-2 processing”, the “minimum concentration found to be effective in inhibiting Trop-2 cleavage” value fell in the range of 6.5 to 13 µM and the “concentration found effective (up to)” value is given as “up to 50 μM”.

B1: siRNAs targeting MMP9: control siRNA targeting murine MMP9 (NM_013599, nt 1780-1798), SEQ ID NO: 59/60 (nucleic acid, listed as Mus musculus)
chain 1: GATCCCCCCGCAGACCAAGAGGGTTTTTCAAGAGAAAACCCTCTTGGTCTGCGGTTTTTGGAAA
chain 2: AGCTTTTCCAAAAACCGCAGACCAAGAGGGTTTTCTCTTGAAAAACCCTCTTGGTCTGCGGGGG
B1: in data set [3] (MTE 4-14 transfectants, siRNA targeting MMP9), the “effect on cell proliferation” value is reported as “no effect on cell proliferation”.

B2: ADAM10 siRNA: siRNA targeting murine ADAM10 (NM_007399.3, nt 292-309), SEQ ID NO: 57/58, expressed from pSUPER (nucleic acid, listed as Mus musculus)
chain 1: GATCCCCAGACATTATGAAGGATTATTTCAAGAGAATAATCCTTCATAATGTCTTTTTTGGAAA
chain 2: AGCTTTTCCAAAAAAGACATTATGAAGGATTATTCTCTTGAAATAATCCTTCATAATGTCTGGG
With B2, the “effect on in vitro growth of R87A-T88A or empty vector transfectants” value in data set [3] (MTE 4-14 R87A-T88A or empty vector transfectants) is “no effect”. Besides, in data set [3] (MTE 4-14 wtTrop-2 transfectants), the “effect on in vitro growth of wtTrop-2 transfectants” value is “overrides Trop-2 dependent growth stimulus”. Also, the “effect on Trop-2 processing” value in data set [1] was “inhibited Trop-2 processing”.

B3: murine ADAM10 (endogenous in MTE 4-14 cells) (protein)
chain: T1 sequence (O35598 215-749)
Consider B3, for which the “Trop-2 processing (Western blot) after ADAM10 gene expression silencing by specific siRNAs” value in data set [4] is “Trop-2 processing was virtually abolished following ADAM10 silencing”.
